The test concerns the target T1, delF508-CFTR (Homo sapiens, UniProt P13569, DEL508-508).
T1 construct: expressed in transfected cells
Nature of the test: Measurement of delF508-CFTR-HRP surface expression in CFBE41o- cells. Type of test: cell-based. The settings on record: for pEC50: HRP-tagged delF508-CFTR in CFBE41o- cells, 24 h with compound, luminescence, 10-point curve, top 10 μM; for Emax: efficacy relative to reference compound 3-(6-(1-(2,2-difluorobenzo[d][1,3]dioxol-5-yl)cyclopropane-1-carboxamido)-3-methylpyridin-2-yl)benzoic acid, CFBE41o- cells, 24 h, read-out: DelF508-CFTR-HRP Amax %. The source says:
Measurement of delF508-CFTR-HRP Surface Expression in CFBE41o-Cells
This assay quantifies the cell surface expressions of the mutant CFTR channel using an extracellular HRP tag.
A cellular assay was developed to measure surface expression of horseradish peroxidase (HRP) tagged delF508-CFTR in the human bronchial epithelial immortalized CFBE41o-cell line (Phuan, P. W., et al, (2014) Molecular Pharmacology 86:42-51). Specifically, the HRP sequence was inserted into the fourth extracellular loop of delF508-CFTR and stably expressed in CFBE41o-cells. Cells were seeded in 384 well plate at a density of 5000 cells/well and incubated at 37° C. for 12 to 24 hours in medium (Gibco MEM #11095, 10% FBS, 10 mM HEPES, […], 200 μg/mL G418, 3 μg/mL Puromycin). The delF508-CFTR-HRP expression was induced with 500 ng/mL doxycycline (Sigma D-9891, dissolved in H2O and sterile filtered) in medium and the cells were incubated at 37° C. for 48 h. Old medium was removed and fresh medium was added containing 500 ng/mL doxycycline and unknown test compound at required test concentration in DMSO, not exceeding 0.5% final DMSO concentration. The highest concentration tested was 10 μM with a 10-point concentration response curve using a 3-fold dilution. After addition of compounds, the cells were incubated for 24 h at 37° C. On the final day, cells were washed four times in PBS containing 1 mM MgCl2 and 0.1 mM CaCl2. HRP-Substrate (SuperSignal ELISA Pico, Fisher #37069) 20 μl/well was added and the luminescence signal was determined (Viewlux, Perkin Elmer). Light was emitted upon addition of exogenous HRP-Substrate only when delF508-CFTR-HRP reached the cell surface and the HRP tag was accessible to the HRP-Substrate (note: HRP-Substrate cannot cross the lipid bilayer to reach delF508-CFTR-HRP misfolded within the cell).
The median activity for the lowest concentration of the compounds on each assay plate was calculated and this value was used to normalize the signal for each well on the respective plate. Three replicates at each concentrations for every compound were run to determine one EC50. The median value was determined and used to calculate compound activities as described below. Effective half maximal values (EC50) were calculated for each compound by performing logistic regression on measured dose-response data points using the equation: […]
where “Y” is the observed activity, “Bottom” is the lowest observed value, “Top” is the highest observed value, and the “Hill coefficient” gives the largest absolute value of the slope. The curve fitting is carried out by a curve fitting program implemented at GNF using Matlab (Mathworks).
The dose response curves also were used to calculate Fold Change (FC) using the equation: […]
Compound efficacy relative to the reference compound 3-(6-(1-(2,2-difluorobenzo[d][1,3]dioxol-5-yl)cyclopropane-1-carboxamido)-3-methylpyridin-2-yl)benzoic acid was determined using the following formula: […]

pEC50: −log10 of the molar value.

T1 sequence (P13569 with tags, fused parts or gaps DEL508-508): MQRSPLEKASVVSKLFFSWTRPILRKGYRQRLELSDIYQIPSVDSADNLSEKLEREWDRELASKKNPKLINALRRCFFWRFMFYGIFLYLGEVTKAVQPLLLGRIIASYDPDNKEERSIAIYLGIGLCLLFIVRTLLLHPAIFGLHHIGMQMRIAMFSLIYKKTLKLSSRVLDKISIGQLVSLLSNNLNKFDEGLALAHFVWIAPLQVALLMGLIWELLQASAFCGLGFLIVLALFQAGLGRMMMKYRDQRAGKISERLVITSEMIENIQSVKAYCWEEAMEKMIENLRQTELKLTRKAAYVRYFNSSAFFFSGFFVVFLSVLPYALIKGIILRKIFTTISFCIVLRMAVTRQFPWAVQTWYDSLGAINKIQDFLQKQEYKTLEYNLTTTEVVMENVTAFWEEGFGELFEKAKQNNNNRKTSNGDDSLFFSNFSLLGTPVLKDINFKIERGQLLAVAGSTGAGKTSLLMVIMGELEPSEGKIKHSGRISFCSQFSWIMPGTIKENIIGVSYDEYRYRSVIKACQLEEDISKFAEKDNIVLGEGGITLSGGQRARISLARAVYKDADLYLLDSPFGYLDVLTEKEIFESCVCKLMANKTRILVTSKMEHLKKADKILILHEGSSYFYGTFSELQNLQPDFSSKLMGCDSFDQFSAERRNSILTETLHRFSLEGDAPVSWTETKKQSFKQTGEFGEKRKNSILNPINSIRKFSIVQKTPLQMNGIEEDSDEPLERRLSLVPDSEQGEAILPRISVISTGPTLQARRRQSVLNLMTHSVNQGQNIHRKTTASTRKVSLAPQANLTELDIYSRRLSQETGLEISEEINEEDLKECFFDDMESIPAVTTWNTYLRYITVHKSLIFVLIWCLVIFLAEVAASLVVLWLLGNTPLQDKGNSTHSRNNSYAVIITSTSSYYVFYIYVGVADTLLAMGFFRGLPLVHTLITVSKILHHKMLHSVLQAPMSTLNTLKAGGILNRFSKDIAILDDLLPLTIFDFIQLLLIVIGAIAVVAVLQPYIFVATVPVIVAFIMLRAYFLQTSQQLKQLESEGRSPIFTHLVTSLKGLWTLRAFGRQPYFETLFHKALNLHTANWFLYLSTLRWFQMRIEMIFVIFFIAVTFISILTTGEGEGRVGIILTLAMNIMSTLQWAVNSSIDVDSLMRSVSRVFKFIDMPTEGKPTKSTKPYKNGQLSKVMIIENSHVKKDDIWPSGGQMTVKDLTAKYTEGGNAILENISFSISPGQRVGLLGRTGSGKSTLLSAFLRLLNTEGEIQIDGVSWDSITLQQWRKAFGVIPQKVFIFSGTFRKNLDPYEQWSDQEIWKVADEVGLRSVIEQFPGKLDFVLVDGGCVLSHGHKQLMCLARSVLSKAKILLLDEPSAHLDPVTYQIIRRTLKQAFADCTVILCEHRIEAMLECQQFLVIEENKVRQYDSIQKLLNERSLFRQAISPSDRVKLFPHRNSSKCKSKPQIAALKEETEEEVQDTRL

As to `CCN(CCC(=O)O)c1cc(S(=O)(=O)Nc2ccc(Cl)c(-c3c(C)cccc3C)n2)ccn1` [Compound 140, 3-((4-(N-(5-chloro-6-(2,6-dimethylphenyl)pyridin-2-yl)sulfamoyl)pyridin-2-yl)(ethyl)amino)propanoic Acid], the pEC50 was 5.53 and the Emax stood at 209%.

As to `Cc1ccccc1-c1nc(NS(=O)(=O)c2cccc(N3CCC[C@](C)(CC(=O)O)C3)n2)ccc1C(F)(F)F` (single isomer, unassigned) [Compound 123], the negative-log EC50 (pEC50) was 5.79.

`Cc1ccccc1-c1nc(NS(=O)(=O)c2cccc(N3CCCCC3CCC(=O)O)n2)ccc1C(F)(F)F` (stereo not drawn) [Compound 98, 3-(1-(6-(N-(6-(o-tolyl)-5-(trifluoromethyl)pyridin-2-yl)sulfamoyl)pyridin-2-yl)piperidin-2-yl)propanoic Acid]: the pEC50 was 5.81.

`Cc1ccccc1-c1nc(NS(=O)(=O)c2cccc(N[C@@H]3[C@H]4CC[C@H](C4)[C@@H]3C(=O)O)n2)ccc1C(F)(F)F` (racemic) [108a 108b (racemic mixture)]: the pEC50 was 5.68 and the Emax was 569%.

As for `Cc1cccc(C)c1-c1nc(NS(=O)(=O)c2cccc(NCCCCC(=O)O)n2)ccc1Cl` [Compound 4, 5-((6-(N-(5-chloro-6-(2,6-dimethylphenyl)pyridin-2-yl)sulfamoyl)pyridin-2-yl)amino)pentanoic Acid], the negative-log EC50 (pEC50) is 5.66.

In the case of `C=Cc1ccccc1-c1nc(NS(=O)(=O)c2cccc(N3CCC[C@H](CC(=O)OCC)C3)n2)ccc1C(F)(F)F` [Compound 77, ethyl (R)-2-(1-(6-(N-(5-(trifluoromethyl)-6-(2-vinylphenyl)pyridin-2-yl)sulfamoyl)pyridin-2-yl)piperidin-3-yl)acetate], the pEC50 was 5.84 and the Emax worked out at 945%.

For the compound `C=Cc1ccccc1-c1nc(NS(=O)(=O)c2cccc(N3CCC[C@@H](CC(=O)O)C3)n2)ccc1C(F)(F)F` [Compound 58, (S)-2-(1-(6-(N-(5-(trifluoromethyl)-6-(2-vinylphenyl)pyridin-2-yl)sulfamoyl)pyridin-2-yl)piperidin-3-yl)acetic Acid], the pEC50 was 5.63.

Take `Cc1ccccc1-c1nc(NS(=O)(=O)c2cccc(N(C)CC3(C(=O)O)CCC3)n2)ccc1C(F)(F)F` [Compound 137, 1-((methyl(6-(N-(6-(o-tolyl)-5-(trifluoromethyl)pyridin-2-yl)sulfamoyl)pyridin-2-yl)amino)methyl)cyclobutane-1-carboxylic Acid]: the pEC50 is 5.69.

As for `CC(C)c1ccccc1-c1nc(NS(=O)(=O)c2cccc(N3CCC(C)(CC(=O)O)CC3)n2)ccc1C(F)(F)F` [Compound 25, 2-(1-(6-(N-(6-(2-isopropylphenyl)-5-(trifluoromethyl)pyridin-2-yl)sulfamoyl)pyridin-2-yl)-4-methylpiperidin-4-yl)acetic Acid], the pEC50 is 6.00 and the Emax was found to be 780%.

In the case of `Cc1ccccc1-c1nc(NS(=O)(=O)c2cccc(N[C@H]3[C@@H](C(=O)O)[C@H]4C=C[C@@H]3C4)n2)ccc1C(F)(F)F` (racemic) [107a 107b (racemic mixture)], the negative-log EC50 (pEC50) was 5.68 and the Emax was 763%.

In the case of `Cc1ccc(F)cc1-c1nc(NS(=O)(=O)c2cccc(N3CCC(C)(CC(=O)O)CC3)n2)ccc1C(F)(F)F` [Compound 6, 2-(1-(6-(N-(6-(5-fluoro-2-methylphenyl)-5-(trifluoromethyl)pyridin-2-yl)sulfamoyl)pyridin-2-yl)-4-methylpiperidin-4-yl)acetic Acid], the negative logarithm of the EC50 (pEC50) was 5.82 and the Emax came out at 529%.

In the case of `CN(CCCC(=O)O)c1cccc(S(=O)(=O)Nc2ccc(C(F)(F)F)c(-c3ccccc3C3CC3)n2)n1` [Compound 41, 4-((6-(N-(6-(2-cyclopropylphenyl)-5-(trifluoromethyl)pyridin-2-yl)sulfamoyl)pyridin-2-yl)(methyl)amino)butanoic Acid], the negative logarithm of the EC50 (pEC50) was 5.83.

Take `CCC(CC(=O)O)Nc1cc(S(=O)(=O)Nc2ccc(Cl)c(-c3c(C)cccc3C)n2)ccn1` (stereo not drawn) [Compound 141]: the pEC50 is 5.40 and the Emax was found to be 291%.

On to `Cc1ccccc1-c1nc(NS(=O)(=O)c2cccc(NCCC(=O)O)n2)ccc1C(F)(F)F` [Compound 35, 3-((6-(N-(6-(o-tolyl)-5-(trifluoromethyl)pyridin-2-yl)sulfamoyl)pyridin-2-yl)amino)propanoic acid], for which the pEC50 is 5.59 and the Emax is 209%.

For `CCc1ccc(F)cc1-c1nc(NS(=O)(=O)c2cccc(N(CCC(=O)O)C(C)C)n2)ccc1C(F)(F)F` [Compound 119, 3-((6-(N-(6-(2-ethyl-5-fluorophenyl)-5-(trifluoromethyl)pyridin-2-yl)sulfamoyl)pyridin-2-yl)(isopropyl)amino)propanoic Acid], the negative-log EC50 (pEC50) was 5.85.

On to `CC1(C(=O)O)CCN(c2cccc(S(=O)(=O)Nc3ccc(C(F)(F)F)c(-c4ccccc4Oc4ccccc4)n3)n2)CC1` [Compound 28, 4-methyl-1-(6-(N-(6-(2-phenoxyphenyl)-5-(trifluoromethyl)pyridin-2-yl)sulfamoyl)pyridin-2-yl)piperidine-4-carboxylic Acid], for which the negative-log EC50 (pEC50) is 5.84 and the Emax was 442%.

For `Cc1ccc(F)cc1-c1nc(NS(=O)(=O)c2cccc(N(CCC(=O)O)CCC(F)(F)F)n2)ccc1C(F)(F)F` [Compound 151, 3-((6-(N-(6-(5-fluoro-2-methylphenyl)-5-(trifluoromethyl)pyridin-2-yl)sulfamoyl)pyridin-2-yl)(3,3,3-trifluoropropyl)amino)propanoic Acid], the pEC50 is 5.72.

As for `CC1(C(=O)O)CCN(c2cccc(S(=O)(=O)Nc3ccc(Cl)c(-c4ccccc4-c4ccccc4)n3)n2)CC1` [Compound 19, 1-(6-(N-(6-([1,1′-biphenyl]-2-yl)-5-chloropyridin-2-yl)sulfamoyl)pyridin-2-yl)-4-methylpiperidine-4-carboxylic Acid], the pEC50 was 5.65 and the Emax was 378%.

With `CCc1ccccc1-c1nc(NS(=O)(=O)c2cccc(N3CCC[C@H](CC(=O)O)C3)n2)ccc1C(F)(F)F` [Compound 84, (R)-2-(1-(6-(N-(6-(2-ethylphenyl)-5-(trifluoromethyl)pyridin-2-yl)sulfamoyl)pyridin-2-yl)piperidin-3-yl)acetic Acid], the pEC50 is 5.81.

Consider `C=Cc1ccccc1-c1nc(NS(=O)(=O)c2cccc(N3CCCC(CCC(=O)O)C3)n2)ccc1C(F)(F)F` (stereo not drawn) [Compound 74, 3-(1-(6-(N-(5-(trifluoromethyl)-6-(2-vinylphenyl)pyridin-2-yl)sulfamoyl)pyridin-2-yl)piperidin-3-yl)propanoic Acid], for which the pEC50 was 5.96.

Take `COCCN(CCCC(=O)O)c1cccc(S(=O)(=O)Nc2ccc(C(F)(F)F)c(-c3ccccc3C)n2)n1` [Compound 158, 4-((2-methoxyethyl)(6-(N-(6-(o-tolyl)-5-(trifluoromethyl)pyridin-2-yl)sulfamoyl)pyridin-2-yl)amino)butanoic Acid]: the negative-log EC50 (pEC50) was 5.74 and the Emax was determined as 839%.

Consider `CCN(CCCC(=O)O)c1cccc(S(=O)(=O)Nc2ccc(C(F)(F)F)c(-c3ccccc3C(C)C)n2)n1` [Compound 89, 4-(ethyl(6-(N-(6-(2-isopropylphenyl)-5-(trifluoromethyl)pyridin-2-yl)sulfamoyl)pyridin-2-yl)amino)butanoic Acid], for which the pEC50 was 6.01.

Consider `Cc1cccc(C)c1-c1nc(NS(=O)(=O)c2cccc(NCCC(=O)O)n2)ccc1Cl` [Compound 1, 3-((6-(N-(5-chloro-6-(2,6-dimethylphenyl)pyridin-2-yl)sulfamoyl)pyridin-2-yl)amino)propanoic Acid], for which the pEC50 is 5.67 and the Emax stood at 291%.

Consider `C=Cc1ccccc1-c1nc(NS(=O)(=O)c2cccc(N3CCC[C@H](CC(=O)O)C3)n2)ccc1C(F)(F)F` [Compound 57, (R)-2-(1-(6-(N-(5-(trifluoromethyl)-6-(2-vinylphenyl)pyridin-2-yl)sulfamoyl)pyridin-2-yl)piperidin-3-yl)acetic Acid], for which the negative-log EC50 (pEC50) was 5.71.

Source of the values: US20220127247A1, “N-(PYRIDIN-2-YL)PYRIDINE-SULFONAMIDE DERIVATIVES AND THEIR USE IN THE TREATMENT OF DISEASE” (NOVARTIS AG, priority 2019, published 2022).
